From patent US9585903B2, “Pharmaceutical composition comprising sophorolipid in combination with an antibiotic” (priority 2013, dated 2017)
Structures can show the parent of a compound that is named as a salt. Where two headings read alike, the source gives them in different places. Blank lines part the entries; values can stand above or below the molecule they belong to.

Columns and labels:
Format in all cases: cell-based
[1] = tested on: Escherichia coli (ATCC-8739); experiment: MIC determination on culture plate; conditions: against E. coli (ATCC8739)
From the text: (§1) The test microorganisms—Staphylococcus aureus (ATCC-29737) (gram positive) and Escherichia coli (ATCC-8739) (gram negative) used in the invention were procured from National Collection of Industrial Microorganisms, NCL. These two bacteria are of concern due to following reasons—Staphylococcus aureus, capable of causing wide range of severe skin infections; is rapidly evolving resistance to contemporary topical as well as systemic antibiotics (Englander and Friedman 2010). And Escherichia coli, another index bacterium; is more than just a harmless intestinal inhabitant; it can also be a highly versatile, and frequently deadly pathogen. Several different E. coli strains cause diverse intestinal and extra-intestinal diseases by means of virulence factors that affect a wide range of cellular processes (Kaper et al. 2004).
(§2) Accordingly, the stock solutions were prepared in sterile distilled water to assess the MIC values of the antibiotic and SL. The stock strength used was 1 mg/ml for antibiotics and 10 mg/ml for SL. The conjugative/synergistic effect of SL and tetracycline was checked against S. aureus while the conjugative effect of SL and cefaclor was checked against E. coli. In the first step, A600 i.e. absorbance of bacterial suspension giving isolated colonies was fixed and the same A600 was maintained throughout the experiment. Then the MIC values were determined for SL as well as antibiotic against the bacteria. Minimum Inhibitory Concentration (MIC) is defined as the lowest concentration of compound that inhibits visible growth of microorganisms on the culture plate (Rai et al. 2010). For assessing the conjugative effect, the sublethal concentrations of both antimicrobial agents were used so as to rightly evaluate the conjugative effect. Against S. aureus, sublethal concentration of SL was decided to be 300 μg/ml and for tetracycline it was 15 μg/ml.
(§3) The stock solutions were prepared in sterile distilled water to assess the MIC values of the antibiotic and SL. The stock strength used was 1 mg/ml for antibiotics and 10 mg/ml for SL. […]

[2] = tested on: Escherichia coli (ATCC-8739); experiment: Assay of conjugative action of SL and antibiotic (micro dilution and spread plate, CFU count, % cell survival)
Procedure: (§4) Accordingly, the stock solutions were prepared in sterile distilled water to assess the MIC values of the antibiotic and SL. The stock strength used was 1 mg/ml for antibiotics and 10 mg/ml for SL. […] In the first step, A600 i.e. absorbance of bacterial suspension giving isolated colonies was fixed and the same A600 was maintained throughout the experiment. Then the MIC values were determined for SL as well as antibiotic against the bacteria. […] For assessing the conjugative effect, the sublethal concentrations of both antimicrobial agents were used so as to rightly evaluate the conjugative effect.
(§5) According to another aspect, the assay of conjugative action of SL and antibiotic was performed using standard micro dilution and spread plate method. The reaction mixtures were prepared by adding SL and antibiotic stock solutions to sterile distilled water in requisite volumes followed by the addition of bacterial suspension. The control reactions were also set with both bacterial systems to evaluate the effect of antibiotic and SL alone. Controls without addition of any antimicrobial agent were also maintained. The reaction mixtures were incubated at 28° C., 180 rpm for 6 h. The samples were removed at periodic intervals of 2 h, 4 h and 6 h and number of Colony Forming Units (CFUs) were determined by spreading 50 μl of mixture on Nutrient agar plates. […]

[3] = tested on: Staphylococcus aureus (ATCC-29737); experiment: MIC determination on culture plate
From the text: as §1, §2, §3

[4] = tested on: Staphylococcus aureus (ATCC-29737); experiment: Assay of conjugative action of SL and antibiotic (micro dilution and spread plate, CFU count, % cell survival); conditions: FIG. 2(a); tetracycline 15 μg/ml, SL 300 μg/ml; up to 6 h exposure
Procedure: as §4, §5

- MIC [1]: 200 µg/mL
SMILES: N[C@@H](C(=O)N[C@@H]1C(=O)N2C(C(=O)O)=C(Cl)CS[C@H]12)c1ccccc1 [Cefaclor]
- exposure required to get equivalent effect (~98% killing) ([2]; E. coli, cefaclor alone 50 μg/ml): 6 h
- inhibition of E. coli (in words) ([2]; FIG. 2(b), cefaclor 50 μg/ml, SL 500 μg/ml, up to 6 h exposure): almost total inhibition at the end of 6 h exposure

SMILES: CN(C)[C@@H]1C(O)=C(C(N)=O)C(=O)[C@@]2(O)C(O)=C3C(=O)c4c(O)cccc4[C@@](C)(O)[C@H]3C[C@@H]12 [tetracycline-HCl]
- MIC ([3]; Staphylococcus aureus, against S. aureus (ATCC29737), read-out: MIC value): 150 µg/mL
- MIC ([3]; against Staphylococcus aureus): 150 μn/ml
- inhibition of S. aureus (in words) [4]: cannot achieve total inhibition even after 6 h
